Assay results taken from a compilation of properties of binary mixtures (doi:10.1007/s10973-014-3978-x).

Assay: xn = mol fraction of the nth substance listed
Details: 101 kPa

CC[n+]1ccn(C)c1.F[B-](F)(F)F + O=C1CCCCC1
speed of sound [m/s]
Details | 293.15 K | 298.15 K | 303.15 K | 308.15 K
x2 = 0.0789 | 1623.5 | 1613.7 | 1602.6 | –
x2 = 0.1407 | 1616.1 | 1607.6 | 1595.3 | 1581
x2 = 0.1861 | 1609.9 | – | 1587.8 | 1573.9
x2 = 0.2271 | 1603 | 1593.7 | 1580.5 | 1565.6
x2 = 0.2765 | – | – | 1570.4 | –
x2 = 0.3069 | 1588.5 | – | 1563.6 | –
x2 = 0.3898 | 1571.3 | 1560.2 | 1543.8 | 1527.9
x2 = 0.4269 | 1562.9 | – | 1534.4 | 1518.2
x2 = 0.489 | 1548.9 | – | 1518.4 | 1501.3
x2 = 0.5007 | 1545.9 | 1532.4 | 1515 | 1498.2
x2 = 0.5432 | 1535.6 | – | 1503.3 | 1486.5
x2 = 0.6302 | 1514.1 | 1499.3 | 1480.2 | 1462.4
x2 = 0.6848 | – | 1484.9 | 1465.9 | 1447.8
x2 = 0.7559 | 1483.3 | 1467.5 | – | 1428.7
x2 = 0.779 | 1477.4 | 1461.4 | 1441.7 | 1423.1
x2 = 0.8235 | 1467.2 | 1450.9 | 1431.5 | 1412.3
x2 = 0.8675 | 1457 | 1440.8 | – | –
x2 = 0.9001 | 1450.6 | 1433.9 | 1414.6 | 1395

O=C1CCCC1 + CC[n+]1ccn(C)c1.F[B-](F)(F)F
speed of sound [m/s]
Details | 293.15 K | 298.15 K | 303.15 K | 308.15 K
x1 = 0.0877 | 1643.2 | 1628.4 | 1615.4 | –
x1 = 0.1164 | 1644.4 | 1629.3 | 1615.2 | 1599.6
x1 = 0.1767 | 1642 | 1625.9 | 1611.6 | 1595.8
x1 = 0.2302 | 1633.9 | 1619.2 | – | 1588.2
x1 = 0.2879 | 1622.5 | 1606.5 | – | 1576.9
x1 = 0.3434 | – | 1592.4 | 1577.1 | 1562.1
x1 = 0.3887 | 1593.6 | 1578.2 | – | 1548
x1 = 0.478 | 1562.8 | – | 1530.1 | –
x1 = 0.5114 | – | 1533.8 | 1517.1 | 1502.2
x1 = 0.5878 | 1522.6 | 1504.6 | 1486.7 | 1470.6
x1 = 0.6115 | 1513.9 | 1495.8 | 1477.3 | 1460.7
x1 = 0.6411 | 1503.2 | 1485 | 1465.7 | 1448.7
x1 = 0.6834 | – | 1469.2 | 1449.6 | 1431.7
x1 = 0.7649 | 1462.6 | 1441.6 | 1421.2 | 1402.3
x1 = 0.7867 | 1456.3 | 1435.4 | 1414.3 | 1394.6
x1 = 0.8157 | – | 1427 | 1405.9 | 1385.8
x1 = 0.8755 | – | 1412.3 | – | 1370.4
x1 = 0.9061 | 1427.6 | 1406 | 1384.4 | 1363.9
